Data reported in a melting point compilation (Tetko et al.).

C[C@H](OC(=O)Nc1ccccc1)C(=O)O
melting point: 137 to 142 °C

O=[N+]([O-])c1cc([N+](=O)[O-])c(C=C(Cl)c2ccccc2)cc1C=C(Cl)c1ccccc1
melting point: 145 °C

CCCC=CCCC
melting point: -90 °C

CC(=O)Nc1ccc(Br)c(C(=O)O)c1
melting point: 186 to 188 °C

Cc1cc(C)c(CCl)c(C)c1
melting point: 40 °C

c1ccc2cc(SSc3ccc4ccccc4c3)ccc2c1
melting point: 140 °C

FC(F)(F)c1nn(CN2CCN(Cn3nc(C(F)(F)F)n(N=Cc4cccs4)c3=S)CC2)c(=S)n1N=Cc1cccs1
melting point: 187 °C

O=[N+]([O-])c1ccc(C2Nn3c(nnc3-c3cccnc3)S2)cc1 (stereo unspecified)
melting point: 245 to 246 °C

O=C(O)Cc1noc2ccccc12
melting point: 123 to 125 °C

O=C1c2ccc(O)c(O)c2C(=O)c2ccc(O)c(O)c21
melting point: 340 °C

O=C(O)C=Cc1ccc(Sc2ccc(Cl)cc2)c([N+](=O)[O-])c1
melting point: 233 to 235 °C

Cc1cc2ccccc2cc1COC(=O)C(F)(F)F
melting point: 92 °C

O=C(OCc1ccc([N+](=O)[O-])cc1[N+](=O)[O-])c1ccccc1
melting point: 139 °C

CC12CCC3C(C1CCC2=O)C1(CC2CC(=O)CCC23C)OCCO1 (stereo unspecified)
melting point: 205 to 208 °C

Nc1ccc2[nH]ccc2c1
melting point: 132 °C

Oc1c(Cl)c(Cl)c(Cl)c(Cl)c1Cl
melting point: 191 °C

Cc1nc2cc(C)c(C)cc2s1
melting point: 84 °C

ICCCCCCI
melting point: 9.5 °C

O=S(=O)(c1ccccc1)N(F)S(=O)(=O)c1ccccc1
melting point: 110 to 115 °C

COc1ccc(O)c(C=O)c1
melting point: 14.5 °C

O=[N+]([O-])c1ccc(C=Cc2cccc3ccccc23)c([N+](=O)[O-])c1
melting point: 228 °C

Cc1ccc(C=C2C(N)=NC(=O)N=C2N)cc1
melting point: 172 to 173 °C

CC(=O)Nc1ccc(C2=NNC(=O)CC2)cc1
melting point: 250 to 253 °C

CC(Br)C(C)(C)Br (stereo unspecified)
melting point: 11 °C

CCOC(=O)c1nc(-c2cncc(Br)c2)no1
melting point: 101 to 103 °C

COc1cc(Cl)c(Cl)cc1Cl
melting point: 77.5 °C

CNCc1ccc(-c2cncnc2)cc1
melting point: 45 to 46 °C

O=C(O)c1cccc2nsnc12
melting point: 198 to 200 °C

O=C(Cl)c1ccc(Oc2ccccc2)cc1
melting point: 22 to 23 °C

OCc1cc(-c2ccco2)on1
melting point: 90 to 91 °C

CC1(C)OC(C)(C(O)(c2cccc3ccccc23)c2cccc3ccccc23)CCC1C(=O)O (stereo unspecified)
melting point: 210 to 211 °C

N#Cc1ccc(S(=O)(=O)C(F)(F)F)cc1
melting point: 90 °C

CC(=O)Oc1cc(OC(C)=O)cc(C(C)=O)c1
melting point: 91 to 95 °C

CN(NC=O)c1ccccc1
melting point: 47 °C

CC(=O)Nc1cc([N+](=O)[O-])c(C=Cc2ccccc2)cc1C=Cc1ccccc1
melting point: 227 °C

O=C=Nc1ccc(-c2cccs2)cc1
melting point: 65 to 66 °C

COc1ccccc1CC(=O)O
melting point: 124 °C

O=C(COc1ncn(-c2ccc(Cl)cc2)n1)NNC(=S)Nc1ccc(F)cc1
melting point: 181 to 183 °C

N#CC(c1ccc(Cl)cc1)c1c(Cl)cc(-n2ncc(=O)[nH]c2=O)cc1Cl (stereo unspecified)
melting point: 295 °C

CC(=O)n1c(-c2ccccc2)c(O)c2ccc([N+](=O)[O-])cc21
melting point: 179 °C

CCCCc1ccc(/N=N/c2ccc(OCCC)cc2)cc1
melting point: 66 to 68 °C

O=C(O)c1cncc(C(=O)O)c1
melting point: 324 °C

CN(C)c1ccccc1C(=O)O
melting point: 72 °C

CC1(C)C(=O)N(O)C(C)(C)C(=O)N1O
melting point: 300 to 303 °C

O=C(C=Cc1ccc([N+](=O)[O-])cc1)c1ccc(Cl)cc1
melting point: 163 °C

CCCCCCCCCI
melting point: -20 °C

CCCCCCCCCCCCCC(=O)Nc1ccccc1
melting point: 82 to 87 °C

CC(=O)c1cc(C)ccc1C
melting point: -18.1 °C

N#Cc1cnc(N2CCCCC2)nc1N
melting point: 220 to 222 °C

CC=CC(C)C(C)C=CC (stereo unspecified)
melting point: -64.8 °C

Oc1cccc(N2CCNCC2)c1
melting point: 207 °C

Cc1cccc2c1Cc1ccccc1-2
melting point: 85 °C

O=C(Cl)c1cc2c(Cl)cc(Cl)cc2[nH]1
melting point: 173 to 175 °C

CCCCCCCCCCCCOc1ccc(C(=O)O)cc1
melting point: 134 °C

Nc1cc(O)c(Cl)cc1Cl
melting point: 133 to 137 °C

N#Cc1cnc(Br)nc1N
melting point: 250 °C

Clc1cccc(Cl)c1CBr
melting point: 56 °C

c1ccc2c(c1)c1cccc3ccc4cccc2c4c31
melting point: 180 to 182 °C

CC(=O)c1cc2ccccc2oc1=O
melting point: 122 °C

O=C(O)c1nn(Cc2ccc(Cl)cc2Cl)c2ccccc12
melting point: 207 °C

Cc1cc(C(N)=S)n(C)n1
melting point: 170 °C

c1ccc(COc2ccc3ccccc3c2)cc1
melting point: 97 °C

CS(=O)(=O)Nc1ccc([N+](=O)[O-])cc1Oc1ccccc1
melting point: 144 °C

C/C(=N/Nc1ccccc1)C1=Cc2ccccc2C1
melting point: 225 °C

CNC(=O)Oc1ccccc1C1OCCO1
melting point: 114 °C

CN(C)c1cccc2oc3c(cnn3-c3ccccc3)c(=O)c12
melting point: 184 to 186 °C

BrC(Br)=C(Br)Br
melting point: 56.5 °C

NC(=S)CS(=O)(=O)c1cccs1
melting point: 160 to 164 °C

COc1ccc(CCl)cc1
melting point: 24.5 °C

C=CCC1=C(O)C2=CC=C3C(C)=C(C)C(=O)CC3(C)C2=C(O)C1=O (stereo unspecified)
melting point: 171 °C

O=C(N=NC(=O)N1CCCCC1)N1CCCCC1
melting point: 135 °C

CCOC(=O)C(C)O (stereo unspecified)
melting point: -26 °C

O=Cc1cccc2nsnc12
melting point: 99 to 101 °C

O=Cc1cccn1-c1ccc(C(F)(F)F)cc1
melting point: 97 to 98 °C

Nc1cc(-c2ccccc2)nn1-c1ccccc1
melting point: 131 °C

CCOC(=O)c1sc(-c2ccc(N)cc2)nc1C
melting point: 128 °C

CCOC(=O)c1c(-c2ccccc2)csc1NC(=O)c1ccccc1Cl
melting point: 131 to 132 °C

CN1Cc2c(ccc3c2OCO3)C2C(O)Cc3cc4c(cc3C21)OCO4 (stereo unspecified)
melting point: 136 °C

Cc1onc(-c2ccccc2)c1N=C=S
melting point: 73 to 77 °C

CCOC(=O)C1=NN(c2ccc(Cl)cc2Cl)C(C)(C(=O)OCC)C1 (stereo unspecified)
melting point: 51 °C

Cc1onc2c(-c3ccc(Cl)cc3)nnc(-c3ccccc3)c12
melting point: 171 °C

N#CCCCCCCCCC#N
melting point: 7 °C

O=C(Cl)c1ccc(OC2CCOCC2)cc1
melting point: 37.5 to 39 °C

O=[N+]([O-])c1cc2c3ccccc3ccc2c2ccccc12
melting point: 210 to 213 °C

O=C(/C=C/O)CCc1ccccc1
melting point: 150 °C

CCOC(=O)CC[C@H](NC(=O)c1ccc([N+](=O)[O-])cc1)C(=O)OCC
melting point: 92 to 95 °C

O=[N+]([O-])c1ccc2cccnc2c1
melting point: 132 °C

C=C(C)C(=O)OCCCC
melting point: -75 °C

CC1CSC(C=Cc2ccccc2[N+](=O)[O-])S1 (stereo unspecified)
melting point: 70 °C

CC(=O)C(C(=O)OC1CC(C)CCC1C(C)C)C(C)C(C(C)=O)/C(=N\NC(N)=O)OC1CC(C)CCC1C(C)C (stereo unspecified)
melting point: 200 °C

CCCCC1CO1 (stereo unspecified)
melting point: 94 °C
